From patent US12162935B2, “Regimens, compositions and methods with capsaicin and TNF-alpha inhibitor” (priority 2018, dated 2024)

Experiments:
Wistar rats [1] = assay: ABR threshold shifts, noise induced hearing loss (NIHL); assay type: in vivo, rat
Method: Male Wistar rats (150-250 gm) were used for this study under an animal care protocol approved by the Laboratory and Animal Care and Use Committee (SIU School of Medicine). Pre-treatment ABRs were performed. Animals were then treated according to the experimental paradigm. Prevention strategy: consisted of administration of ETA either intra-tympanic ally (IT) (250 μg/50 μl) or subcutaneously (sc) (3 mg/kg) or PBS (IT-50 μl or sc-1 ml) either 3 days or 7 days prior to noise exposure (NE).
Animals were exposed to noise (NE), and then provided ETA treatments either IT or SC at either 2 h or 24 h post noise injury. Post treatment ABR thresholds were determined at 21 days post noise exposure and cochleae were excised for morphological, molecular and biochemical studies. Cochleae used for RNA preparations were flushed immediately with RNA later and kept in RNA later for 24 h at 4° C. Those used for immunohistochemical studies were perfused and fixed with 4% paraformaldehyde, while those used for Scanning electron microscopy (SEM) were perfused and fixed with 2.5% glutaraldehyde. Cochleae used for whole mounts were decalcified for 7-10 days in 100 mM EDTA at room temperature.
Male Wistar rats were exposed to octave band noise at 122 dB centered at 16 kHz for 1 h under isofluorane anesthesia, with the 3 inch silicon tubes attached to the high frequency transducer resting in the middle ear cavity. This exposure typically results in a 30-50 dB temporary threshold shift (measured as an immediate pre-to-post noise exposure shift in ABR thresholds) across all frequencies; with slightly more elevation at those frequencies around 16 kHz and 20-40 dB permanent threshold shift measured at 21 days post noise exposure at all frequencies. Acoustic stimuli are calibrated using a cloth model rat and a Bruel & Kjaer Pulse System with a ½ inch free-field microphone (B&K model 4191). Baseline noise levels in the test chamber (with background test noise turned off) are typically measured below 20 dB SPL in the 4-40 kHz range.
Pre-treatment ABR thresholds were determined using the high frequency Intelligent Hearing Systems (IHS) on naive rats prior to any treatment or noise exposure for each ear. Animals were tested with a stimulus intensity series that was initiated at 0 dB sound pressure level (SPL) and reached a maximum at 90 dB SPL. The stimulus intensity levels were increased in 10 dB increments, and the evoked ABR waveforms were observed on a video monitor. The auditory stimuli included tone bursts at 8, 16, and 32 kHz with a 10 msec plateau and a 1 msec rise/fall time presented at a rate of 5/sec. Threshold was defined as the lowest intensity capable of evoking a reproducible, visually detectable response with two distinct waveforms and minimum amplitude of 0.5 μV.
Preconditioning of the TRPV1 receptor in the rat cochlea by oral administration of capsaicin is shown here to protect from NIHL. Male Wistar rats weighing 200-250 gms were used. ABRs from naïve rats were recorded. Rats were then treated with oral phosphate buffered saline (PBS—1 ml) or capsaicin (1 ml of 20 mg/ml) starting 24 hrs prior to NE, on the day of NE, and 24 hrs post NE. The final ABRs were recorded 21 days post NE. Cochleae were collected for various biochemical tests and immunohistochemistry. At least 6 animals were used per treatment group. NE caused an ABR threshold shift of 21.6±1.7, 35.5±1.9 and 43.9±2.3 dB threshold shift at 8, 16 and 32 kHz respectively. Oral capsaicin treatment completely protects from NIHL (3.9±1.4, 6.1±1.8 and 8.9±2.1 dB threshold shift at 8, 16 and 32 kHz respectively), there is no significant change in ABR threshold shift compared to control. […] Statistical significance was calculated using one way ANOVA with Tukey's post-hoc analyses, p<0.05 (FIG. 16.A.).
ABR measurements were conducted in naïve male Wistar rats. […]

[2] = 25 mg ETA twice a week for 24 weeks; Matteson et al.; cited from earlier work
rat cochlea = assay: Cochlear gene expression by qPCR after noise exposure; assay type: in vivo
Method: Cochleae were pared down to the bone, crushed in liquid nitrogen followed by extraction in 500 μl of TRI reagent. 0.1 ml of chloroform was added, and the tube was shaken vigorously for 15 seconds and centrifuged at 12,000×g for 15 min. RNA was extracted by washing the pellet with 0.5 ml ice-cold isopropanol followed by cold 75% treated ethanol. The ethanol was removed and the tube was air dried briefly. The RNA pellet was resuspended in nuclease free water and RNA levels were determined using optical density readings corresponding to wavelengths of 260 nm, 280 and 320 nm using a spectrophotometer (Eppendorf BioPhotometer, Hamburg, Germany).
500 ng of total RNA was converted to cDNA using iScript cDNA Synthesis Kit (Bio-Rad, Hercules, CA). The reaction mixture was set up as follows: Ing of total RNA, 4 μl of iScript reaction mix, 1 μl of iScript reverse transcriptase, nuclease free water to bring the total volume to 20 μl. The reaction mix was incubated at 25° C. for 5 min, 42° C. for 30 minutes and 85° C. for 5 minutes. This cDNA reaction mix was used for real time PCR, as described previously [Mukherjea et al., 2006]. Gene specific primer pairs were used for the various reactions and mRNA expression levels were normalized to the levels of GAPDH. The primer sets were purchased from Sigma Genosys (St. Louis, MO), and were as follows: […]

Wistar rats [3] = assay: Restoration of hearing after permanent threshold shifts (Example 10B); assay type: in vivo, rat; conditions: treatment after PTS at 4 weeks; oral capsaicin 5 mg/kg 3 days, ETA 1 mg/kg s.c. day 2, three weeks
Method: FIG. 23A is a schematic showing the experimental paradigm used in Example 10B. Pre-treatment baseline ABRs were performed in naïve male Wistar rats. The rats were then used either as sham controls (no noise exposure) or exposed-noise (122 dB, OBN centered at 16 kHz for 1 hour). Post noise exposure ABRs were repeated at 4 weeks to establish permanent threshold shifts (PTS). […] Final ABR threshold values were evaluated at week 9 post noise exposure.
Values shown in FIGS. 23A-23C and otherwise provided with respect to this Example 10B are expressed as the mean±SEM. Statistical significance was analyzed using the ANOVA and Tukey's host hoc analysis.

[4] = TT ETA rescue at 24 hours post NE
[5] = TT ETA rescue within 2 hours post NE
[6] = TT-ETA 250 μg/50 μl, 3 day pre-treatment, 21 days post NE
[7] = s.c. ETA rescue at 24 hours post NE
[8] = s.c. ETA rescue within 2 hours post NE
[9] = subcutaneous ETA 3 mg/kg, 3 day pre-treatment, 21 days post NE

etanercept
increase in hearing threshold (hearing loss) (Wistar rats [1]; ETA pre-treatment sc or TT, 3 or 7 days prior to NE (FIG. 17.A)): 5-10 dB
threshold shifts (Wistar rats [1]; TT ETA at 2 h post NE (FIG. 17.B)): 20-37.5 dB
ABR threshold shift at 8 kHz (Wistar rats [1]; [4]): 22.5±2.9 dB
ABR threshold shift at 16 kHz (Wistar rats [1]; [4]): 31.25±3.2 dB
ABR threshold shift at 32 kHz (Wistar rats [1]; [4]): 37.5±3.7 dB
ABR threshold shift at 8 kHz (Wistar rats [1]; [5]): 20±2.6 dB
ABR threshold shift at 16 kHz (Wistar rats [1]; [5]): 30±2.7 dB
ABR threshold shift at 32 kHz (Wistar rats [1]; [5]): 33.75±2.7 dB
ABR threshold shift at 8 kHz (Wistar rats [1]; TT ETA, 7 day pretreatment): 16.25±3.25 dB
ABR threshold shift at 16 kHz (Wistar rats [1]; TT ETA, 7 day pretreatment): 16.25±3.75 dB
ABR threshold shift at 32 kHz (Wistar rats [1]; TT ETA, 7 day pretreatment): 16.25±4.6 dB
ABR threshold shift at 8 kHz (Wistar rats [1]; [6]): 1.25±1.25 dB
ABR threshold shift at 16 kHz (Wistar rats [1]; [6]): 0 dB
ABR threshold shift at 32 kHz (Wistar rats [1]; [6]): 3.75±1.8 dB
Wave 1 amplitude versus sound intensity (Wistar rats [1]; capsaicin 5 mg/kg oral, ETA 1 mg/kg, noise exposure (FIG. 18.B)): partial restoration
ABR threshold shift at 8 kHz (Wistar rats [1]; s.c ETA, 7 day pretreatment): 12.5±3.6 dB
ABR threshold shift at 16 kHz (Wistar rats [1]; s.c ETA, 7 day pretreatment): 15±5 dB
ABR threshold shift at 32 kHz (Wistar rats [1]; s.c ETA, 7 day pretreatment): 16.25±5.3 dB
ABR threshold shift at 8 kHz (Wistar rats [1]; [7]): 21.25±3.9 dB
ABR threshold shift at 16 kHz (Wistar rats [1]; [7]): 22.5±4.9 dB
ABR threshold shift at 32 kHz (Wistar rats [1]; [7]): 26.25±5.6 dB
ABR threshold shift at 8 kHz (Wistar rats [1]; [8]): 9.16±2.6 dB
ABR threshold shift at 16 kHz (Wistar rats [1]; [8]): 15.8±4.5 dB
ABR threshold shift at 32 kHz (Wistar rats [1]; [8]): 20.8±6.0 dB
ABR threshold shift at 8 kHz (Wistar rats [1]; [9]): 4±1.6 dB
ABR threshold shift at 16 kHz (Wistar rats [1]; [9]): 8±2.5 dB
ABR threshold shift at 32 kHz (Wistar rats [1]; [9]): 11±18 dB
threshold shift (Wistar rats [1]; subcutaneous ETA at 2 h post NE (FIG. 17.B)): 10-25 dB
side effects [2]: no side effects
TRPV1, TNF-α and COX2 expression (rat cochlea; ETA rescue by TT injection at 24 hours): unable to decrease the TRPV1, TNF-α and COX2 to basal levels
NE induced up regulation of TRPV1, TNF-α, NOX3, COX2, iNOS and Bax (rat cochlea; pretreatment with ETA): prevents the NE induced up regulation
average hearing threshold shifts at 9 weeks (Wistar rats [3]): 25-38 dB
